Measurements as given in patent publication US7927785B2, “Methods for in vitro expansion of hematopoietic stem cells” (The Board of Trustees of the University of Illinois, priority 2002, dated 2011).

What was measured:
Assay type in all cases: cell-based
[1] = tested on: adult human bone marrow CD34+ cells; assay: Phenotypic analysis (FACS) of marrow CD34+ cells after ex vivo culture
Description: (§1) To promote cell division of isolated CD34^+ cells, a stroma-free suspension culture was established as previously described (Bazil et al., 1995). Tissue culture dishes (35 mm; Costar, Corning, N.Y.) were seeded with 1×10^5 CD34^+cells/well in 2.5 mL Iscove modified Dulbecco medium (IMDM) (Biowhittaker, Walkersville, Md.) containing 30% FBS and a cocktail of cytokines specifically thought to promote exit from G0/G1 in primitive HSC populations which consisted of 100 ng/mL recombinant stem cell factor (SCF), 100 ng/mL FLT-3 ligand, 100 ng/mL thrombopoetin (TPO) and 50 ng/mL of interleukin (IL)-3, (all from Amgen Inc., Thousand Oaks, Calif.).
(§2) Cells were maintained in the media and incubated at 37° C. in a 100%-humidified atmosphere containing 5% CO2 for 48 hours. After intial 16 hours of incubation cells were exposed to the demethylating agent, 5-aza2′deoxycitidine (5azaD) (Sigma Chemicals, St. Louis, Mo.) at a concentration of 10^−6M. After 48 hours, cells were washed by centrifugation and then equally distributed to new tissue culture dishes in 2.5 mL IMDM supplemented with 30% FBS containing cytokines known to promote terminal differentiation of HSC into multiple hematopoietic lineages. The cocktail of cytokines contained 100 ng/mL of SCF, 50 ng/ml of granulocyte colony-stimulating factor (G-CSF), 50 ng/mL of IL-3, 50 ng/ml of IL-6 and 5 units (U)/mL of recombinant erythropoietin (EPO) (Amgen Inc., Thousand Oaks, Calif.). Cells at this time point were exposed to Trichostatin (TSA) (Sigma Chemical., St. Louis, Mo.) at 5 ng/mL and the culture was continued for an additional 7 days. At the end of the culture period cells were counted for viability by the trypan blue exclusion method using an inverted microscope. 5-fluorouracil (5-FU) (Sigma Chemical., St. Louis, Mo.) was used at a concentration of 200 μg/ml and added at the 16 hour time point instead of 5azaD and the cultures carried on as described above with no addition of TSA.
(§3) The phenotypic characteristics of the CD34^+ cells were analyzed using FACS. After 9 days of culture, expanded marrow CD34^+ cells were analyzed for primitive HSC phenotype, previously defined, by using flow activated-cell sorter (FACS) (Becton Dickinson (BD) FACS Calibur, San Jose, Calif.). Cells were stained with anti-human CD34^+ moAb conjugated either to fluorescein isothiocyanate (FITC) or phycoerythrin (PE) and another moAb including anti-CD38, anti-CD117, anti-CD90. To determine the lineage positive cells a panel of moab all conjugated to FITC (anti-CD2, anti-CD14, anti-CD15, anti-CD19 and anti-GlyA) (all antibodies were purchased from BD) were utilized. All anaylsis were paired with the corresponding matched isotype control of the specific moAb utilized. All staining and washes were performed in DPBS (Biowhittaker, Walkersville Md.) and 0.5% BSA (Sigma, Chemicals Co., St. Louis, Mo.). Immediately prior to FACS anaylsis, […] propidium iodide (PI) (Sigma, Chemicals Co., St. Louis, Mo.) was added for the exclusion of nonviable cells for phenotypic analysis. Using Cell-Quest software (BD), at least 10,000 live cells were acquired for each analysis.

[2] = tested on: adult human bone marrow CD34+ cells; assay: Ex vivo expansion culture: cell counts and CD34+CD90+ cell numbers
Description: as §1, §2, §3

[3] = tested on: adult human bone marrow CD34+ cells; assay: Colony-forming cell (CFC) assay in methylcellulose
Description: Colony-forming cells (CFC) were assayed under standard conditions in semisolid media as previously described (Brandt et al., Blood 94:106-113, 1999). Briefly 1×10^3 primary CD34^+ cells or unfractionated cultured cells exposed to different conditions used following 9 days of culture were plated in duplicate cultures containing 1 ml IMDM with 1.1% methylcellulose, 30% FBS, 5×10^−5 M 2-mercaptoethanol (Methocult, Stem Cell Technologies, Vancouver, BC, Canada), and a cocktail of growth factors including 100 ng/ml of SCF, 5 U/mL of EPO, 50 ng/mL of IL-3, 50 ng/mL of IL-6 and 50 ng/mL of G-CSF (Amgen Inc., Thousand Oaks, Calif.). The cells were plated into 35 mm tissue-culture dishes (Costar), and after 14 days of incubation at 37° C. in a 100%-humidified atmosphere containing 5% CO2, the colonies were scored with an inverted microscope following standard criteria (Breems et al., Leukemia, 8:1095-1104, 1994).

[4] = tested on: adult human bone marrow CD34+ cells; assay: Colony-forming cell (CFC) assay in methylcellulose; details: after 5 days
[5] = 9 days of culture, single agent, % of total cells
[6] = 9 days of culture, single agent
[7] = 9 days with cytokines, mean of 3 ± SEM
[8] = colonies/plate, cells after 9 days with cytokines, mean of 2 ± SEM

Compound: O=c1[nH]cc(F)c(=O)[nH]1 [5-FU, 5-fluorouracil]
- CD34+ CD90+ % [1, 5]: 1.2%
- CD34+ CKit lo % [1, 5]: 4%
- CD34+ Lin− % [1, 5]: 27%
- CD34+CD38− % [1, 5]: 27%
- Total CD34+ % [1, 5]: 27%
- % of CD34+ cells that were CD90+ ([1]; day 9): 10%
- % of cells that were CD34+ ([1]; day 9): 20%
- % CD34+ of all cells [2, 6]: 26%
- % CD34+ thy-1+ cells [2, 6]: 1%
- Absolute CD34+ thy-1+ cells ×10^5 [2, 6]: 0.0002 ×10^5
- Absolute CD34 counts ×10^5 [2, 6]: 0.0065 ×10^5
- Fold changes from the original cells ([2]; 9 days of culture, single agent, CD34+CD90+ cells): 0.001 fold
- Total counts ×10^5 ([2]; 9 days of culture, single agent, start 1×10^5 CD34+ cells/well): 0.025 ×10^5
- Absolute CD34+ Number (×10^4) [2, 7]: 0.1 ± 0.0 ×10^4
- Absolute CD34+CD90+ Numbers (×10^4) [2, 7]: 0.0 ×10^4
- Total Mononuclear Cell Number (×10^4) [2, 7]: 0.3 ± 0.0 ×10^4
- CD34+CD90+ cells observed ([2]; by day 9): no CD34^+CD90^+ cells were observed
- Fold Expansion of CD34+CD90+ ([2]; compared to the primary cell numbers, mean of 3 ± SEM): 0.0 fold
- absolute number of CD34+CD90+ cells in the culture ([2]; day 9, from 22,000 at start): 700
- assayable hematopoietic progenitor cells ([3]; 9 days with cytokines, compared with primary cells): no assayable hematopoietic progenitor cells
- Total Number Colonies/plate ([3]; cells after 9 days with cytokines, mean of 2 ± SEM): 0
- BFU-E [3, 8]: 0
- CFU-GM [3, 8]: 0
- CFU-Mix [3, 8]: 0
- Plating Efficiencies ([3]; total number of hematopoietic colonies/total cells plated × 100): 0
- assayable hematopoetic progenitor cells [4]: no assayable hematopoetic progenitor cells
